Experimental data reported in patent publication US12397007B2, “Methods of treatment with combinations of cannabidiol and psilocybin” (ECP Pharma, priority 2021, dated 2025).

Columns and labels:
[1] = system: adult rats exposed to a moderate fluid-percussion pulse over the right parietal cortex; assay: Moderate fluid-percussion TBI, stereological volumetric analyses of contusion and cortical atrophy; assay type: in vivo, rat; settings: approximately 4 weeks after injury; relative to injured vehicle-control animals; FIG. 5 right panel
Protocol: (§1) Another study was conducted in rats to evaluate the synergy of an oral combination of psilocybin and CBD in mitigating TBI-induced pathology in a preclinical model of TBI. In this study, adult rats were exposed to a moderate fluid-percussion pulse over the right parietal cortex.
(§2) Psilocybin (1.5 mg/kg) and/or CBD (5 mg/kg) in 1 mL of ddH2O (or vehicle/ddH2O alone) was dosed by oral gavage at 1-hour post-injury, and for 1×/day for 6 consecutive days thereafter, resulting in 7 total dosage administrations. Animals receiving psilocybin+CBD were exposed to a traumatic/fearful stimulus (predatory urine) to evaluate anxiety-like behavior. Outcome measurements included sensorimotor (cylinder test), cytoprotection (volumetric analyses of contusion and cortical atrophy), and neuroinflammation (microglia reactivity).

rat blast model of TBI = assay: Rat blast model of TBI, light dark box; assay type: in vivo; settings: CBD 5 mg/kg IP, psilocybin 1.5 mg/kg PO from one hour after injury, 7 total doses; vs vehicle; FIG. 2
Source text: This increased time spent in light was not seen with either CBD or psilocybin when dosed separately.

Iba1+ microglia = assay: Moderate fluid-percussion TBI, immunohistochemical analysis of microglia reactivity; assay type: in vivo, rat
Protocol: as §1, §2
Boxes demarcate representative cells in which changes could be compared.

[2] = preliminary quantitative analyses, FIG. 7

**Q.** For `C=C(C)[C@@H]1CCC(C)=C[C@H]1c1c(O)cc(CCCCC)cc1O` [CBD, Cannabidiol], which cortical volume atrophy [1] is on record?
**A.** Its cortical volume atrophy is “trended positively towards normalization”.

**Q.** What about the “stress, time spent in light in the light dark box” value (rat blast model of TBI) of the same compound?
**A.** The value was “not seen”.

**Q.** And the “reactive microglia morphology, CA1” value (Iba1+ microglia; CBD 5 mg/kg alone vs TBI/Vehicle, FIG. 6 bottom row)?
**A.** The value was “seemed to reduce reactive microglia morphology”.

**Q.** And the “number of Iba1+ cells, dentate gyrus of ipsilateral hippocampus” value (Iba1+ microglia; CBD 5 mg/kg alone vs controls, FIG. 6 middle row)?
**A.** The value was “significantly greater in number in controls compared to CBD group”.

**Q.** What about the “Iba1+ cell density, CA1” value (Iba1+ microglia; CBD 5 mg/kg alone vs injured vehicle, FIG. 6 bottom row) of the same compound?
**A.** Its value is “no overt differences”.

**Q.** And the “injury-induced Iba+ microglia changes” value (Iba1+ microglia; CBD 5 mg/kg alone, FIG. 6)?
**A.** The value was “normalization of injury-induced Iba+microglia changes”.

**Q.** And the “density of Iba1+ cells, pericontusional cortex” value (Iba1+ microglia; CBD 5 mg/kg alone, FIG. 6 top row)?
**A.** Its value is “reduced density of Iba1+ cells”.

**Q.** And the “activated microglia phenotypes, cortical penumbra” value (Iba1+ microglia; [2])?
**A.** Its value is “significantly decreased”.

**Q.** And the “overall microglia numbers, cortical penumbra” value (Iba1+ microglia; [2])?
**A.** The value was “reduced overall microglia numbers”.
